Peptide text beside a SMILES is read from it. * marks the point of attachment. Dansyl = CN(C)c1cccc2c(S(=O)(=O)*)cccc12
Columns and labels:
Dnc-PR20/Kapβ2 = assay: Screening for DPRs-Kapβ2 binding inhibitors with additives (probe fluorescence attenuation); design: species or system human; settings: Dnc-PR20 300 nM, Kapβ2 400 nM
Procedure: A buffer solution (20 mM Tris-HCl (pH 7.5), 150 mM NaCl, and 2 mM DTT (final concentration)) was used to prepare a mixture of Dnc-PR20 (final concentration 300 nM) and Kapβ2 (final concentration 400 nM), and an automatic dispensing system (Andrew+, Andrew Alliance) was used to add 20 µL/well of each to a 384-well microplate (Corning, 3820). After incubation at 35°C for 10 min, the fluorescence intensity (fluorescence wavelength: 520 nm) and fluorescence spectrum (fluorescence wavelength: 400-700 nm) were measured at an excitation wavelength of 340 nm using a microplate reader (Cytation 5, BioTek). Then, 5 µL/well of various concentrations of additives (poly K50 or IgG/pure water) were added using an automated pipetting system, and after incubation at 35°C for 10 minutes, the fluorescence intensity and fluorescence spectrum were measured under the same conditions. As a control, the Dnc-PR20 solution without Kapβ2 was measured for fluorescence intensity and fluorescence spectrum in the same manner.
In addition to poly K50 and IgG, the 520 nm fluorescence intensity of Dnc-PR20 was measured with PAMAM, GST-M9M, RanGTP, ATP, and HSA as additives, using the same procedure as in Section 6 above.

Kapβ2 = assay: Kapβ2-induced fluorescence change of dansyl-DPR probes; type: binding, human; settings: for fluorescence intensity / spectrum change on addition of Kapβ2: various Kapβ2 concentrations
Procedure: (§1) A buffer solution (20 mM Tris-HCl (pH 7.5), 150 mM NaCl, and 2 mM DTT (final concentration)) was used to prepare the probe solutions (final concentration 300 nM) for probes 1 to 7 above. Each probe solution was added to a 384-well microplate (Corning, 3575) at 30 µL/well using an automated pipetting system (Andrew+, Andrew Alliance). After incubation at 35°C for 10 min, fluorescence intensity (fluorescence wavelength: 520 nm) and fluorescence spectrum (fluorescence wavelength: 400-700 nm) at an excitation wavelength of 340 nm were measured using a microplate reader (Cytation 5, BioTek). Then, various concentrations of Kapβ2 solution (Kapβ2/pure water) were added to the 384-well microplate at 30 µL/well using an automated pipetting system. After incubation at 35°C for 10 minutes, fluorescence intensity and fluorescence spectrum were measured under the same conditions as above.

MBP-FUS = assay: FUS-induced fluorescence change of dansyl-DPR probes; type: binding, human; settings: for fluorescence intensity / spectrum change on addition of MBP-FUS: various MBP-FUS concentrations
Procedure: as §1
The same procedure as in Section 2 above was used, except that MBP-tagged FUS (MBP-FUS) solution (MBP-FUS/pure water) was used in place of the Kapβ2 solution, to measure the fluorescence intensity and fluorescence spectra of Dnc-PR20 (probe 1) and Dnc-GP20 (probe 2).

β-lactoglobulin = assay: Fluorescence change of probes by various proteins: β-lactoglobulin; type: binding, bovine; settings: for fluorescence spectrum / 540 nm fluorescence intensity change on addition of β-lactoglobulin: 1600 nM protein solution, probe 300 nM
Procedure: as §1
(§2) The fluorescence intensity and fluorescence spectra of Dnc-PR20 (probe 1) and Dnc-GP20 (probe 2) were measured using the same procedure as described in Section 2 above, except that aqueous solutions (1600 nM) of bovine milk-derived β-lactoglobulin, human serum-derived α1-antitrypsin, human serum-derived albumin (HSA), human serum-derived apotransferrin, chicken egg white-derived lysozyme, or human serum-derived immunoglobulin G (IgG) were used in place of the Kapβ2 solution.

[1] = tested on: α1-antitrypsin, albumin (HSA), apotransferrin, lysozyme, immunoglobulin G (IgG); assay: Fluorescence change of probes by various proteins: other control proteins; type: binding, human; chicken; settings: 1600 nM protein solutions; probe 300 nM
Procedure: as §1, §2

Imb-2 = assay: Fluorescence change of probes by LLPS-related proteins: Imb-2; type: binding, C. elegans; settings: Imb-2 solution 800 nM (Figure 8)
Procedure: as §1
(§3) In addition to the proteins tested in Sections 2 to 4 above, aqueous solutions of proteins that may be relevant to the formation or control of liquid-liquid phase separation (LLPS) were used to measure the 520 nm fluorescence intensity of Dnc-PR20 (probe 1) and Dnc-GP20 (probe 2). The following proteins were used as proteins that may be associated with the formation or regulation of LLPS were Imb-2, hnRNPA2LC, PPIA, Impα, Impβ, GST-M9M, and RanGTP. […]

Impα = assay: Fluorescence change of probes by LLPS-related proteins: Impα; type: binding, human; settings: Impα solution 1600 nM (Figure 8)
Procedure: as §1, §3

Impβ = assay: Fluorescence change of probes by LLPS-related proteins: Impβ; type: binding, human; settings: Impβ solution 1600 nM (Figure 8)
Procedure: as §1, §3

[2] = probe 300 nM, excitation 340 nm

Compound: 50-mer polylysine [poly K50]
- fluorescence intensity change of Dnc-PR20 in Dnc-PR20/Kapβ2 solution (Dnc-PR20/Kapβ2; additive 0-300 nM): decreased in a poly K50 concentration-dependent manner
- additive concentration resulting in a fluorescence intensity comparable to that of the control (Dnc-PR20/Kapβ2; control = Dnc-PR20 solution without Kapβ2): 200 nM
- 520 nm fluorescence intensity change of Dnc-PR20 in Dnc-PR20/Kapβ2 mixture (Dnc-PR20/Kapβ2; various additives (Figure 10)): attenuated

Compound: CN(C)c1cccc2c(S(=O)(=O)NCC(=O)N3CCC[C@H]3C(=O)NCC(=O)N3CCC[C@H]3C(=O)NCC(=O)N3CCC[C@H]3C(=O)NCC(=O)N3CCC[C@H]3C(=O)NCC(=O)N3CCC[C@H]3C(=O)NCC(=O)N3CCC[C@H]3C(=O)NCC(=O)N3CCC[C@H]3C(=O)NCC(=O)N3CCC[C@H]3C(=O)NCC(=O)N3CCC[C@H]3C(=O)NCC(=O)N3CCC[C@H]3C(=O)O)cccc12 [Dnc-GP10, Dansyl-NH-(Gly-Pro)10-COOH] (Dansyl-GPGPGPGPGPGPGPGPGPGP-OH)
- fluorescence intensity / spectrum change on addition of Kapβ2 (Kapβ2; [2]): unchanged

Compound: CN(C)c1cccc2c(S(=O)(=O)NCC(=O)N3CCC[C@H]3C(=O)NCC(=O)N3CCC[C@H]3C(=O)NCC(=O)N3CCC[C@H]3C(=O)NCC(=O)N3CCC[C@H]3C(=O)NCC(=O)N3CCC[C@H]3C(=O)NCC(=O)N3CCC[C@H]3C(=O)NCC(=O)N3CCC[C@H]3C(=O)NCC(=O)N3CCC[C@H]3C(=O)NCC(=O)N3CCC[C@H]3C(=O)NCC(=O)N3CCC[C@H]3C(=O)NCC(=O)N3CCC[C@H]3C(=O)NCC(=O)N3CCC[C@H]3C(=O)NCC(=O)N3CCC[C@H]3C(=O)NCC(=O)N3CCC[C@H]3C(=O)NCC(=O)N3CCC[C@H]3C(=O)NCC(=O)N3CCC[C@H]3C(=O)NCC(=O)N3CCC[C@H]3C(=O)NCC(=O)N3CCC[C@H]3C(=O)NCC(=O)N3CCC[C@H]3C(=O)NCC(=O)N3CCC[C@H]3C(=O)O)cccc12 [Dnc-GP20, Dansyl-NH-(Gly-Pro)20-COOH] (Dansyl-GPGPGPGPGPGPGPGPGPGPGPGPGPGPGPGPGPGPGPGP-OH)
- fluorescence intensity / spectrum change on addition of MBP-FUS (MBP-FUS; [2]): hardly changed
- fluorescence intensity / spectrum change on addition of Kapβ2 (Kapβ2; [2]): little changed
- fluorescence spectrum / 540 nm fluorescence intensity change on addition of β-lactoglobulin (β-lactoglobulin): did not exhibit substantial changes
- fluorescence spectrum change on addition of the other proteins [1]: did not exhibit substantial changes

Compound: CN(C)c1cccc2c(S(=O)(=O)NCC(=O)N[C@@H](CCCNC(=N)N)C(=O)NCC(=O)N[C@@H](CCCNC(=N)N)C(=O)NCC(=O)N[C@@H](CCCNC(=N)N)C(=O)NCC(=O)N[C@@H](CCCNC(=N)N)C(=O)NCC(=O)N[C@@H](CCCNC(=N)N)C(=O)NCC(=O)N[C@@H](CCCNC(=N)N)C(=O)NCC(=O)N[C@@H](CCCNC(=N)N)C(=O)NCC(=O)N[C@@H](CCCNC(=N)N)C(=O)NCC(=O)N[C@@H](CCCNC(=N)N)C(=O)NCC(=O)N[C@@H](CCCNC(=N)N)C(=O)O)cccc12 [Dnc-GR10, Dansyl-NH-(Gly-Arg)10-COOH] (Dansyl-GRGRGRGRGRGRGRGRGRGR-OH)
- fluorescence intensity / spectrum change on addition of Kapβ2 (Kapβ2; [2]): increased in a Kapβ2 concentration-dependent manner

Compound: C[C@H](NC(=O)[C@@H]1CCCN1C(=O)[C@H](C)NC(=O)[C@@H]1CCCN1C(=O)[C@H](C)NC(=O)[C@@H]1CCCN1C(=O)[C@H](C)NC(=O)[C@@H]1CCCN1C(=O)[C@H](C)NC(=O)[C@@H]1CCCN1C(=O)[C@H](C)NC(=O)[C@@H]1CCCN1C(=O)[C@H](C)NC(=O)[C@@H]1CCCN1C(=O)[C@H](C)NC(=O)[C@@H]1CCCN1C(=O)[C@H](C)NC(=O)[C@@H]1CCCN1C(=O)[C@H](C)NC(=O)[C@@H]1CCCN1S(=O)(=O)c1cccc2c(N(C)C)cccc12)C(=O)O [Dnc-PA10, Dansyl-NH-(Pro-Ala)10-COOH] (Dansyl-PAPAPAPAPAPAPAPAPAPA-OH)
- fluorescence intensity / spectrum change on addition of Kapβ2 (Kapβ2; [2]): unchanged

Compound: CN(C)c1cccc2c(S(=O)(=O)N3CCC[C@H]3C(=O)N[C@@H](CCCNC(=N)N)C(=O)N3CCC[C@H]3C(=O)N[C@@H](CCCNC(=N)N)C(=O)N3CCC[C@H]3C(=O)N[C@@H](CCCNC(=N)N)C(=O)N3CCC[C@H]3C(=O)N[C@@H](CCCNC(=N)N)C(=O)N3CCC[C@H]3C(=O)N[C@@H](CCCNC(=N)N)C(=O)N3CCC[C@H]3C(=O)N[C@@H](CCCNC(=N)N)C(=O)N3CCC[C@H]3C(=O)N[C@@H](CCCNC(=N)N)C(=O)N3CCC[C@H]3C(=O)N[C@@H](CCCNC(=N)N)C(=O)N3CCC[C@H]3C(=O)N[C@@H](CCCNC(=N)N)C(=O)N3CCC[C@H]3C(=O)N[C@@H](CCCNC(=N)N)C(=O)O)cccc12 [Dnc-PR10, Dansyl-NH-(Pro-Arg)10-COOH] (Dansyl-PRPRPRPRPRPRPRPRPRPR-OH)
- fluorescence intensity / spectrum change on addition of Kapβ2 (Kapβ2; [2]): increased in a Kapβ2 concentration-dependent manner

Compound: CN(C)c1cccc2c(S(=O)(=O)N3CCC[C@H]3C(=O)N[C@@H](CCCNC(=N)N)C(=O)N3CCC[C@H]3C(=O)N[C@@H](CCCNC(=N)N)C(=O)N3CCC[C@H]3C(=O)N[C@@H](CCCNC(=N)N)C(=O)N3CCC[C@H]3C(=O)N[C@@H](CCCNC(=N)N)C(=O)N3CCC[C@H]3C(=O)N[C@@H](CCCNC(=N)N)C(=O)N3CCC[C@H]3C(=O)N[C@@H](CCCNC(=N)N)C(=O)N3CCC[C@H]3C(=O)N[C@@H](CCCNC(=N)N)C(=O)N3CCC[C@H]3C(=O)N[C@@H](CCCNC(=N)N)C(=O)N3CCC[C@H]3C(=O)N[C@@H](CCCNC(=N)N)C(=O)N3CCC[C@H]3C(=O)N[C@@H](CCCNC(=N)N)C(=O)N3CCC[C@H]3C(=O)N[C@@H](CCCNC(=N)N)C(=O)N3CCC[C@H]3C(=O)N[C@@H](CCCNC(=N)N)C(=O)N3CCC[C@H]3C(=O)N[C@@H](CCCNC(=N)N)C(=O)N3CCC[C@H]3C(=O)N[C@@H](CCCNC(=N)N)C(=O)N3CCC[C@H]3C(=O)N[C@@H](CCCNC(=N)N)C(=O)N3CCC[C@H]3C(=O)N[C@@H](CCCNC(=N)N)C(=O)N3CCC[C@H]3C(=O)N[C@@H](CCCNC(=N)N)C(=O)N3CCC[C@H]3C(=O)N[C@@H](CCCNC(=N)N)C(=O)N3CCC[C@H]3C(=O)N[C@@H](CCCNC(=N)N)C(=O)N3CCC[C@H]3C(=O)N[C@@H](CCCNC(=N)N)C(=O)O)cccc12 [Dnc-PR20, Dansyl-NH-(Pro-Arg)20-COOH] (Dansyl-PRPRPRPRPRPRPRPRPRPRPRPRPRPRPRPRPRPRPRPR-OH)
- 520 nm fluorescence (Imb-2): above 1000
- 540 nm fluorescence intensity increase compared to the fluorescence intensity at 0 nM MBP-FUS (MBP-FUS; 1600 nM MBP-FUS, probe 300 nM, excitation 340 nm): approximately 4.6 fold
- 520 nm fluorescence (MBP-FUS; MBP-FUS solution 1600 nM (Figure 8)): above 1000
- fluorescence intensity / spectrum change on addition of MBP-FUS (MBP-FUS; [2]): increased in an MBP-FUS concentration-dependent manner
- 540 nm fluorescence intensity increase compared to the fluorescence intensity at 0 nM Kapβ2 (Kapβ2; 1600 nM Kapβ2, probe 300 nM, excitation 340 nm): approximately 6.1 fold
- 520 nm fluorescence (Kapβ2; Kapβ2 solution 1600 nM (Figure 8)): above 1000
- fluorescence intensity / spectrum change on addition of Kapβ2 (Kapβ2; [2]): increased in a Kapβ2 concentration-dependent manner
- 520 nm fluorescence (Impα): above 1000
- fluorescence spectrum / 540 nm fluorescence intensity change on addition of β-lactoglobulin (β-lactoglobulin): slightly increased
- 520 nm fluorescence (β-lactoglobulin; β-lactoglobulin solution 1600 nM (Figure 8)): above 1000
- fluorescence spectrum change on addition of the other proteins [1]: did not exhibit substantial changes
- 520 nm fluorescence (Impβ): above 1000

Compound: Dansyl-NH-(Gly-Ala)19-COOH (Dansyl-GAGAGAGAGAGAGAGAGAGA-OH) [Dnc-GA10]
- fluorescence intensity / spectrum change on addition of Kapβ2 (Kapβ2; [2]): unchanged

From patent EP4733761A1, “METHOD FOR SCREENING FOR PROTEINS ASSOCIATED WITH NEURODEGENERATIVE DISEASES AND THERAPEUTIC OR PROPHYLACTIC DRUGS FOR NEURODEGENERATIVE DISEASES” (priority 2023, dated 2026)
